Literature values in PMC4381587, “A novel PI3K inhibitor PIK-C98 displays potent preclinical activity against multiple myeloma” (Oncotarget, 2014).

Tests used:
[1] = tested on: relapsed indolent lymphoma; design: method as in PMID 24450857, PMID 24450858; settings: phase II, single agent; cited from earlier work
[2] = tested on: relapsed chronic lymphocytic leukemia; design: method as in PMID 24450857, PMID 24450858; settings: phase II, single agent; cited from earlier work

Structure (SMILES): CC[C@H](Nc1ncnc2[nH]cnc12)c1nc2cccc(F)c2c(=O)n1-c1ccccc1 [idelalisib]
- total response rate [1]: 57%
- overall complete rate [2]: 72%
